{"source": "patent US9410128B2", "about": "“Method and compounds for generation of iPSCs” (Sanford-Burnham Medical Research Institute, priority 2011, dated 2016)", "format_in_all_cases": "cell-based, mouse", "key": {"Sox2": {"tested_on": "Sox2", "assay": "Endogenous Sox2 mRNA expression by real time qRT-PCR in OKM-transduced Oct4-EGFP MEFs", "conditions": "OKM-transduced cells, compared with OKM+DMSO (FIG. 3E)", "excerpt": "To understand the molecular mechanism underlying OHTM's effect on reprogramming, the question of whether OHTM induces endogenous Sox2 expression was posed. To do so, OHTM or control DMSO was applied to Oct4-EGFP MEF four days after transduction with OKM. Cells were harvested at indicated time points for total RNA isolation and real time qRT-PCR analysis (FIG. 3E). […] However, the direct targets of OHTM to affect Sox2 expression were not clear.\nOct4-EGFP MEFs were transduced with OKM and treated with OHTM four days later. Cells were harvested at indicated days (D) for real time RT-PCR analysis. β actin expression serves as an internal control. Error bars represent standard deviation of 2˜3 independent experiments. * p value <0.05."}, "Oct4-EGFP MEFs [1]": {"tested_on": "Oct4-EGFP MEFs", "assay": "OKM (without Sox2) reprogramming of Oct4-EGFP MEFs, GFP+ colony count", "protocol": "Oct4-EGFP MEFs were derived from the mouse strain B6; 129S4-Pou5f1^tm2(EGFP)Jae/J (The Jackson Laboratory, Bar Harbor, Me., USA, on the world wide web at jax.org/; stock #008214) following the protocol on the WiCell Research Institute, Madison, Wis., USA, on the world wide web at wicell.org/website. In brief, embryonic day 13.5 (E13.5) embryos were collected from timemated pregnant female mice and then tested for microbial contamination. […]\n(§1) Reprogramming was conducted as described in Takahashi et al. (Cell 126: 663-676 (2006)). […] Reprogrammed (EGFP+) cells were identified and scored by fluorescence microscopy two to three weeks post transduction, unless otherwise stated. […]\nOct4-EGFP MEFs were transduced with OKM and treated with pool of 6 molecules, including NiSO4, nabumetone, OHTM, moclobemide, lectin, and corynanthine, at day 4 for at least 10 days. GFP+ colonies were identified and counted as described in FIG. 1 at day 14. […]\nOct4-EGFP MEFs were transduced with OKM and four days later treated with 1.25 uM OHTM at least 10 days. GFP+ colonies were counted as described in FIG. 1 at day 15˜21. […]\nOct4-EGFP MEFs were transduced with OKM and four days later treated with 2.18 uM nabumetone (Nabu) for at least 10 days. GFP+ colonies were counted as described in FIG. 1 at day 17˜21. […]"}, "Oct4-EGFP MEFs [2]": {"tested_on": "Oct4-EGFP MEFs", "assay": "Alkaline phosphatase (AP)+ colony formation during reprogramming", "conditions": "molecules applied during reprogramming; data not shown", "protocol": "iPS cells were seeded and cultured on 0.1% gelatin-coated 6-well plates. Four days later, cells were fixed with 4% paraformadehyde (Electron Microscopy Sciences; Cat#15710-S). For immunofluorescence, fixed cells were permeabilized with 0.1% Triton X-100 in PBS and blocked with 5% BSA in PBS. SSEA-1 (R&D; Cat#MAB2155), Sox2 (R&D; Cat#MAB2018), and Nanog (R&D; Cat#AF2729) antibodies were used to detect ES markers. Nuclei were visualized by Hoechst 33342 (Invitrogen) staining. For AP staining, fixed cells were treated with alkaline phosphatase substrate following the manufacturer's instruction (Vector Laboratories; Cat#SK-5100).\nAll 17 molecules were tested by examining alkaline phosphatase (AP)+ colony formation during reprogramming while these molecules were applied. […] To that end, 6 molecules were picked including nabumetone, 4-hydroxytamoxifen (OHTM), corynanthine, moclobemide, NiSO4, and lectin—for further analysis (FIG. 2A). To evaluate their effect on induction of mature GFP+ iPS cells, OSKM-transduced Oct4-EGFP MEFs were treated four days after transduction with each of these factors separately."}, "Oct4-EGFP MEFs [3]": {"tested_on": "Oct4-EGFP MEFs", "assay": "OSKM-induced reprogramming of Oct4-EGFP MEFs to iPS cells, GFP+ colony count", "excerpt": "(§2) Oct4-EGFP MEFs were derived from the mouse strain B6; 129S4-Pou5f1^tm2(EGFP)Jae/J (The Jackson Laboratory, Bar Harbor, Me., USA, on the world wide web at jax.org/; stock #008214) following the protocol on the WiCell Research Institute, Madison, Wis., USA, on the world wide web at wicell.org/website. In brief, embryonic day 13.5 (E13.5) embryos were collected from timemated pregnant female mice and then tested for microbial contamination. Oct4-EGFP MEFs were maintained in MEF complete medium (Dulbecco's modified Eagle's medium [For DMEM or culture medium & materials: Gibco Cell Culture, Carlsbad, Calif., USA, on the world wide web at invitrogen.com/gibco] with 10% fetal bovine serum (FBS), nonessential amino acids, L-glutamine, and no sodium pyruvate). Cells passaged fewer than five times were used for induced reprogramming.\nReprogramming was conducted as described in Takahashi et al. (Cell 126: 663-676 (2006)). In brief, 4×10^4 Oct4-EGFP MEF were transduced with pMX retroviruses for ectopic expression of Oct4, Sox2, Klf4, and c-Myc (Addgene). Three days later, cells were fed ES medium (DMEM with 15% ES-screened FBS, nonessential amino acids, L-glutamine, monothioglycerol, and 1000 U/ml leukemia inhibitory factor (LIF)) and the media was changed every other day. Reprogrammed (EGFP+) cells were identified and scored by fluorescence microscopy two to three weeks post transduction, unless otherwise stated. To derive iPSCs, EGFP+ colonies were manually picked under a stereomicroscope (Leica Microsystems). In the case of small molecule treatment, indicated small molecules were applied to reprogramming cells on day four post-transduction and fresh medium was added every other day for at least two weeks or until EGFP+ colonies appeared.\nFor reprogramming, retrovirus expressing reprogramming factors (Oct4, Sox2, Klf4, and c-Myc) were added and the medium was then changed to complete medium next day. For overexpression of COX2 transgene, retroviruses expressing COX2 were added 1 day after OSKM transduction. siRNAs were introduced at day 5 post-transduction."}, "Oct4-EGFP MEFs [4]": {"tested_on": "Oct4-EGFP MEFs", "assay": "OSK (without c-Myc) reprogramming of Oct4-EGFP MEFs, GFP+ colony count", "excerpt": "as §2\nas §1, with “(2006)). In brief, 4×10^4 Oct4-EGFP MEF were transduced with pMX retroviruses for ectopic expression of Oct4, Sox2, Klf4, and c-Myc (Addgene).” for “(2006)).”"}}}
{"compound": "4-hydroxytamoxifen [4-hydroxytamoxifen (OHTM)]", "values": [{"measurement": "induction of endogenous Sox2 mRNA", "setting": "Sox2; day 12", "value": 220, "unit": "%"}, {"measurement": "induction of endogenous Sox2 mRNA", "setting": "Sox2; day 16", "value": 400, "unit": "%"}, {"measurement": "effect on OKM-induced reprogramming", "setting": "Oct4-EGFP MEFs [1]; 1.25 uM, day 15~21, vs OKM+DMSO (FIG. 3C)", "value": "significantly improved"}, {"measurement": "effect on AP+ colony formation", "setting": "Oct4-EGFP MEFs [2]", "value": "not showing adverse effect"}]}
{"compound": "COC(=O)[C@H]1[C@H]2C[C@H]3c4[nH]c5ccccc5c4CCN3C[C@@H]2CC[C@@H]1O.Cl", "note": "[Corynanthine hydrochloride]", "values": [{"measurement": "effect on AP+ colony formation", "setting": "Oct4-EGFP MEFs [2]", "value": "not showing adverse effect"}]}
{"compound": "O=C(NCCN1CCOCC1)c1ccc(Cl)cc1", "note": "[Moclobemide]", "values": [{"measurement": "effect on AP+ colony formation", "setting": "Oct4-EGFP MEFs [2]", "value": "not showing adverse effect"}]}
{"compound": "COc1ccc2cc(CCC(C)=O)ccc2c1", "note": "[Nabumetone]", "values": [{"measurement": "enhancement of reprogramming efficiency", "setting": "Oct4-EGFP MEFs [3]; in the presence of control siRNA (siNT), compared with DMSO treatment, day 12~14 (FIG. 2C)", "value": "more than 6 fold"}, {"measurement": "increase in number of reprogrammed (GFP+) colonies", "setting": "Oct4-EGFP MEFs [3]; treated four days after transduction, compared with DMSO controls (FIG. 2B)", "value": "at least 2.8 fold"}, {"measurement": "effect on OKM-induced reprogramming", "setting": "Oct4-EGFP MEFs [1]; 2.18 uM, day 17~21 (FIG. 3D)", "value": "significantly improved"}, {"measurement": "effect on AP+ colony formation", "setting": "Oct4-EGFP MEFs [2]", "value": "not showing adverse effect"}, {"measurement": "enhancement of reprogramming by OSK", "setting": "Oct4-EGFP MEFs [4]; OSK without c-Myc, treated four days after transduction, day 21, compared with OSK+DMSO (FIG. 3A)", "value": "~2.5", "unit": "fold"}]}
{"compound": "COc1ccc2c(c1)c(CC(=O)O)c(C)n2C(=O)c1ccc(Cl)cc1", "note": "[indomethacin]", "values": [{"measurement": "effect on iPSC generation (EGFP+ colony number)", "setting": "Oct4-EGFP MEFs [3]; applied day 4~5 post transduction, scored two weeks post transduction (FIG. 6A)", "value": "no effect"}, {"measurement": "effect on iPSC generation (EGFP+ colony number)", "setting": "Oct4-EGFP MEFs [4]; OSK, applied day 4~5 post transduction, scored two weeks post transduction (FIG. 6B)", "value": "no effect"}]}
